Test results taken from paper PMC6749294, “Comparison of the Utility of RP-TLC Technique and Different Computational Methods to Assess the Lipophilicity of Selected Antiparasitic, Antihypertensive, and Anti-inflammatory Drugs” (Molecules, 2019).

experiment: not given; design: method as in PMID 12972078; conditions: RP-HPLC, ODS column μBondapak C18; cited from earlier work

Row | SMILES | log kwODS
1 | CC(C(=O)O)c1ccc(-c2ccccc2)c(F)c1 (centres unmarked) [Flurbiprofen, flurbiprofen] | 2.91
2 | CC(C(=O)O)c1cccc(C(=O)c2ccccc2)c1 (centres unmarked) [Ketoprofen, ketoprofen] | 2.83

same assay, conditions: RP-HPLC, immobilized artificial membrane (IAM.PC.MG) column; cited from earlier work

Row | SMILES | log kw IAM
3 | CC(C(=O)O)c1ccc(-c2ccccc2)c(F)c1 (centres unmarked) [Flurbiprofen, flurbiprofen] | 1.58
4 | CC(C(=O)O)c1cccc(C(=O)c2ccccc2)c1 (centres unmarked) [Ketoprofen, ketoprofen] | 1.02

experiment: Experimental n-octanol-water partition coefficient (logPexp) from literature and databases; format: physicochemical; conditions: average of the differing literature logPexp values (± spread)
Text: The next stage of this paper was a comparison of all obtained RMWS and RMWO parameters calculated using […] equations with theoretical and experimental logP values obtained in an n-octanol-water system.

Row | SMILES | logP
5 | CCOC(=O)C1=C(C)NC(C)=C(C(=O)OC)C1c1cccc(Cl)c1Cl (centres unmarked) [Felodipine, felodipine] | 4.16
6 | CC(C(=O)O)c1ccc(-c2ccccc2)c(F)c1 (centres unmarked) [Flurbiprofen, flurbiprofen] | 4
7 | Cc1ncc([N+](=O)[O-])n1CC(O)CCl (centres unmarked) [Ornidazole, ornidazole] | 0.41
8 | CCS(=O)(=O)CCn1c([N+](=O)[O-])cnc1C [Tinidazole, tinidazole] | 0.18

experiment: not given; conditions: n-octanol-water, ref 6; cited from earlier work

Row | SMILES | logPexp
9 | CCOC(=O)C1=C(C)NC(C)=C(C(=O)OC)C1c1cccc(Cl)c1Cl (centres unmarked) [Felodipine, felodipine] | 3.86 [6]
10 | COC(=O)C1=C(C)NC(C)=C(C(=O)OC(C)C)C1c1cccc2nonc12 (centres unmarked) [Isradipine, isradipine] | 4.28 [6]

same assay, conditions: n-octanol-water, ref 36; cited from earlier work

Row | SMILES | logPexp
11 | CC(C(=O)O)c1ccc(-c2ccccc2)c(F)c1 (centres unmarked) [Flurbiprofen, flurbiprofen] | 4.16 [36]

same assay, conditions: n-octanol-water, ref 41; cited from earlier work

Row | SMILES | logPexp
12 | CCOC(=O)C1=C(C)NC(C)=C(C(=O)OC)C1c1cccc(Cl)c1Cl (centres unmarked) [Felodipine, felodipine] | 4.46 [41]

same assay, conditions: n-octanol-water, ref 42; cited from earlier work

Row | SMILES | logPexp
13 | CC(C(=O)O)c1ccc(-c2ccccc2)c(F)c1 (centres unmarked) [Flurbiprofen, flurbiprofen] | 3.84 [42]

experiment: RP-TLC lipophilicity on RP-18F254 plates (Soczewiński-Wachtmeister's and Ościk's equations); format: physicochemical; conditions: Ościk's equation, acetone-water mobile phase, silica gel RP-18F254
Procedure: The chromatographic analysis was carried on RP-18F254 plates (Art.1.05559, E. Merck, Darmstadt, Germany). The solutions of the investigated compounds were spotted separately onto chromatographic plates using precise micropipettes in a quantity of 5 µL each.
The chromatograms were developed using the mixtures of methanol-water and acetone-water in different volume compositions, as follows:
For antiparasitic drugs: • - the content of methanol was gradually varied by 10% (v/v) from 20–100 (%, v/v), • - the content of acetone was gradually varied by 10% (v/v) from 10–100 (%, v/v).
In the case of antihypertensive drugs, the content of methanol and acetone was gradually varied by 5% (v/v) from 60–100 (%, v/v).
For non-steroidal anti-inflammatory drugs: • - the content of methanol was gradually varied by 5% (v/v) from 60–100 (%, v/v), • - the content of acetone was gradually varied by10% (v/v) from 20–100 (%, v/v).
Next, the chamber was saturated with solvent vapor for 20 min. The chromatograms were developed at room temperature, e.g., 22 ± 1 °C. The development distance was 75 mm. The plates were dried at room temperature, e.g., 22 ± 1 °C. Each chromatogram was done in triplicate.
Densitometric scanning was done using a TLC Scanner 3 with WinCATS 1.4.2 software manufactured by Camag (Muttenz, Switzerland) in the reflectance/absorbance mode.
Densitometric scanning was performed at a respective absorption maximum for the analyzed drugs. The slit dimensions were 10.00 × 0.40 mm, Macro; the optimized optical system was light; the scanning speed was 20 mm/s; the data resolution was 100 μm/step; the measurement type was remission; the measurement mode was absorption; and the optical filter was second order. Each track was scanned three times, and a baseline correction (lowest slope) was used.
In order to determine the lipophilicity parameter based on Soczewiński-Wachtmeister′s procedure, the RF values obtained under the applied chromatographic conditions were converted into RM values according to the expression:(4) RM=log1/RF−1 The linear relationship between RM and the volume content of methanol and acetone in the mobile phase (φ) permits an extrapolation of the calculated RM values to the zero concentration of methanol and acetone in accordance with Soczewiński-Wachtmeister′s Equation (5). […] (5) RM=RMWS−Sφ where: RM is the RM value of the studied compound, RMWS is the RM value extrapolated to zero concentration of methanol and acetone (organic modifier) in the used mobile phase, i.e., methanol-water and acetone-water, respectively, S is the slope of the regression plot (see Supplementary Materials), and φ is the volume fraction of methanol and acetone in the mobile phase. In addition to this, on the basis of the said plot, i.e., Soczewiński-Wachtmeister′s equation, another chromatographic descriptor (φ0) has been calculated according to the following formula (Equation (6)): (6) φ0 = RMWS/S where: RMWS is the chromatographic parameter obtained by using Soczewiński-Wachtmeister’s equation in accordance with Equation (5), and S is the regression slope.
The measurable lipophilicity value expressed as RMWO was determined according to Ościk’s equation [29, 30, 32]:(7) Gxorg=xorg1−xorg/RM−xorgRMorg−1−xorgRMWO=axorg+b where: RM, RMorg, and RMWO are the solute retention factors in the mixed mobile phase, pure organic solvent, and water, respectively; xorg is the molar fraction of the organic solvent in the mobile phase; a and b are constants in the linear correlation between G(xorg) and xorg in the used mobile phase.

Row | SMILES | RMWO(a)
14 | CCOC(=O)C1=C(C)NC(C)=C(C(=O)OC)C1c1cccc(Cl)c1Cl (centres unmarked) [Felodipine, felodipine] | 5.57
15 | COC(=O)C1=C(C)NC(C)=C(C(=O)OC(C)C)C1c1cccc2nonc12 (centres unmarked) [Isradipine, isradipine] | 5.67
16 | Cc1ncc([N+](=O)[O-])n1CC(O)CCl (centres unmarked) [Ornidazole, ornidazole] | 1.42
17 | CCS(=O)(=O)CCn1c([N+](=O)[O-])cnc1C [Tinidazole, tinidazole] | 1.11

same assay, conditions: Ościk's equation, methanol-water mobile phase, silica gel RP-18F254

Row | SMILES | RMWO(m)
18 | CCOC(=O)C1=C(C)NC(C)=C(C(=O)OC)C1c1cccc(Cl)c1Cl (centres unmarked) [Felodipine, felodipine] | 6.57
19 | CC(C(=O)O)c1ccc(-c2ccccc2)c(F)c1 (centres unmarked) [Flurbiprofen, flurbiprofen] | 2.26
20 | COC(=O)C1=C(C)NC(C)=C(C(=O)OC(C)C)C1c1cccc2nonc12 (centres unmarked) [Isradipine, isradipine] | 5.08
21 | CC(C(=O)O)c1cccc(C(=O)c2ccccc2)c1 (centres unmarked) [Ketoprofen, ketoprofen] | 3.76
22 | Cc1ncc([N+](=O)[O-])n1CC(O)CCl (centres unmarked) [Ornidazole, ornidazole] | 1.92
23 | CCS(=O)(=O)CCn1c([N+](=O)[O-])cnc1C [Tinidazole, tinidazole] | 1.69

same assay, conditions: Soczewiński-Wachtmeister's equation, acetone-water mobile phase, silica gel RP-18F254

Row | SMILES | RMWS(a)
24 | CCOC(=O)C1=C(C)NC(C)=C(C(=O)OC)C1c1cccc(Cl)c1Cl (centres unmarked) [Felodipine, felodipine] | 3.75
25 | CC(C(=O)O)c1ccc(-c2ccccc2)c(F)c1 (centres unmarked) [Flurbiprofen, flurbiprofen] | 1.87
26 | COC(=O)C1=C(C)NC(C)=C(C(=O)OC(C)C)C1c1cccc2nonc12 (centres unmarked) [Isradipine, isradipine] | 3.54
27 | CC(C(=O)O)c1cccc(C(=O)c2ccccc2)c1 (centres unmarked) [Ketoprofen, ketoprofen] | 1.26
28 | Cc1ncc([N+](=O)[O-])n1CC(O)CCl (centres unmarked) [Ornidazole, ornidazole] | 1.22
29 | CCS(=O)(=O)CCn1c([N+](=O)[O-])cnc1C [Tinidazole, tinidazole] | 0.89

same assay, conditions: Soczewiński-Wachtmeister's equation, methanol-water mobile phase, silica gel RP-18F254

Row | SMILES | RMWS(m)
30 | CCOC(=O)C1=C(C)NC(C)=C(C(=O)OC)C1c1cccc(Cl)c1Cl (centres unmarked) [Felodipine, felodipine] | 4.27
31 | CC(C(=O)O)c1ccc(-c2ccccc2)c(F)c1 (centres unmarked) [Flurbiprofen, flurbiprofen] | 1.98
32 | COC(=O)C1=C(C)NC(C)=C(C(=O)OC(C)C)C1c1cccc2nonc12 (centres unmarked) [Isradipine, isradipine] | 3.13
33 | CC(C(=O)O)c1cccc(C(=O)c2ccccc2)c1 (centres unmarked) [Ketoprofen, ketoprofen] | 1.47
34 | Cc1ncc([N+](=O)[O-])n1CC(O)CCl (centres unmarked) [Ornidazole, ornidazole] | 1.46
35 | CCS(=O)(=O)CCn1c([N+](=O)[O-])cnc1C [Tinidazole, tinidazole] | 1.17

same assay, conditions: φ0 = RMWS/S (Equation 6), acetone-water mobile phase

Row | SMILES | φ0(a)
36 | CCOC(=O)C1=C(C)NC(C)=C(C(=O)OC)C1c1cccc(Cl)c1Cl (centres unmarked) [Felodipine, felodipine] | 0.775
37 | CC(C(=O)O)c1ccc(-c2ccccc2)c(F)c1 (centres unmarked) [Flurbiprofen, flurbiprofen] | 0.930
38 | COC(=O)C1=C(C)NC(C)=C(C(=O)OC(C)C)C1c1cccc2nonc12 (centres unmarked) [Isradipine, isradipine] | 0.751
39 | CC(C(=O)O)c1cccc(C(=O)c2ccccc2)c1 (centres unmarked) [Ketoprofen, ketoprofen] | 0.640
40 | Cc1ncc([N+](=O)[O-])n1CC(O)CCl (centres unmarked) [Ornidazole, ornidazole] | 0.565
41 | CCS(=O)(=O)CCn1c([N+](=O)[O-])cnc1C [Tinidazole, tinidazole] | 0.463

same assay, conditions: φ0 = RMWS/S (Equation 6), methanol-water mobile phase

Row | SMILES | φ0(m)
42 | CCOC(=O)C1=C(C)NC(C)=C(C(=O)OC)C1c1cccc(Cl)c1Cl (centres unmarked) [Felodipine, felodipine] | 0.929
43 | CC(C(=O)O)c1ccc(-c2ccccc2)c(F)c1 (centres unmarked) [Flurbiprofen, flurbiprofen] | 0.771
44 | COC(=O)C1=C(C)NC(C)=C(C(=O)OC(C)C)C1c1cccc2nonc12 (centres unmarked) [Isradipine, isradipine] | 0.837
45 | CC(C(=O)O)c1cccc(C(=O)c2ccccc2)c1 (centres unmarked) [Ketoprofen, ketoprofen] | 0.687
46 | Cc1ncc([N+](=O)[O-])n1CC(O)CCl (centres unmarked) [Ornidazole, ornidazole] | 0.676
47 | CCS(=O)(=O)CCn1c([N+](=O)[O-])cnc1C [Tinidazole, tinidazole] | 0.612

experiment: not given; conditions: RP-18F254 plates, acetonitrile-water; cited from earlier work

Row | SMILES | Rm0
48 | CC(C(=O)O)c1ccc(-c2ccccc2)c(F)c1 (centres unmarked) [Flurbiprofen, flurbiprofen] | 2.5076
49 | CC(C(=O)O)c1cccc(C(=O)c2ccccc2)c1 (centres unmarked) [Ketoprofen, ketoprofen] | 1.8491

same assay, conditions: calculated from regression curve Rm0 = f(logP); cited from earlier work

Row | SMILES | logP
50 | CC(C(=O)O)c1ccc(-c2ccccc2)c(F)c1 (centres unmarked) [Flurbiprofen, flurbiprofen] | 3.82
51 | CC(C(=O)O)c1cccc(C(=O)c2ccccc2)c1 (centres unmarked) [Ketoprofen, ketoprofen] | 2.66

experiment: not given; design: method as in PMID 9809446; conditions: Nano-Sil CNF254 plates, methanol-water; cited from earlier work

Row | SMILES | RMO
52 | CC(C(=O)O)c1cccc(C(=O)c2ccccc2)c1 (centres unmarked) [Ketoprofen, ketoprofen] | 2.31

same assay, conditions: RP-18WF254 plates, methanol-water, Soczewiński-Wachtmeister's equation; cited from earlier work

Row | SMILES | RMO
53 | CC(C(=O)O)c1cccc(C(=O)c2ccccc2)c1 (centres unmarked) [Ketoprofen, ketoprofen] | 1.74
